Columns and labels:
Assay in all cases: relative viability (nuclei count vs DMSO), 5 days (fraction); higher = more cells survive
Bosutinib + Bortezomib = compound: COc1cc(Nc2c(C#N)cnc3cc(OCCCN4CCN(C)CC4)c(OC)cc23)c(Cl)cc1Cl [Bosutinib] + CC(C)C[C@H](NC(=O)[C@H](Cc1ccccc1)NC(=O)c1cnccn1)B(O)O [Bortezomib] (partner 0.002 µM)
Method in brief: (§1)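 Each reported value is a median over duplicate plates. It expresses relative viability: treated-well nuclei count divided by vehicle-well nuclei count. Lung cancer cell lines in 1536-well plates were dosed by pin tool a day after seeding, alone with one drug or with a fixed anchor-drug dose plus five library-drug doses (not always all listed) in √10 steps, and nuclei were counted after 5 days.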

Bosutinib + Foretinib = compound: COc1cc(Nc2c(C#N)cnc3cc(OCCCN4CCN(C)CC4)c(OC)cc23)c(Cl)cc1Cl [Bosutinib] + COc1cc2c(Oc3ccc(NC(=O)C4(C(=O)Nc5ccc(F)cc5)CC4)cc3F)ccnc2cc1OCCCN1CCOCC1 [Foretinib] (partner 0.25 µM)
Method in brief: as §1

Bosutinib + Tozasertib = compound: COc1cc(Nc2c(C#N)cnc3cc(OCCCN4CCN(C)CC4)c(OC)cc23)c(Cl)cc1Cl [Bosutinib] + Cc1cc(Nc2cc(N3CCN(C)CC3)nc(Sc3ccc(NC(=O)C4CC4)cc3)n2)n[nH]1 [Tozasertib] (partner 0.1 µM)
Method in brief: as §1

Bosutinib + Vorinostat = compound: COc1cc(Nc2c(C#N)cnc3cc(OCCCN4CCN(C)CC4)c(OC)cc23)c(Cl)cc1Cl [Bosutinib] + O=C(CCCCCCC(=O)Nc1ccccc1)NO [Vorinostat] (partner 1 µM)
Method in brief: as §1

Bosutinib + Luminespib = compound: COc1cc(Nc2c(C#N)cnc3cc(OCCCN4CCN(C)CC4)c(OC)cc23)c(Cl)cc1Cl [Bosutinib] + CCNC(=O)c1noc(-c2cc(C(C)C)c(O)cc2O)c1-c1ccc(CN2CCOCC2)cc1 [Luminespib] (partner 0.01 µM)
Method in brief: as §1

Cell Line	relative viability (Bosutinib + Bortezomib; first compound 0.01 µM)	relative viability (Bosutinib + Bortezomib; first compound 0.03162 µM)	relative viability (Bosutinib + Bortezomib; first compound 0.1 µM)	relative viability (Bosutinib + Bortezomib; first compound 1 µM)	relative viability (Bosutinib + Foretinib; first compound 0.01 µM)	relative viability (Bosutinib + Foretinib; first compound 0.03162 µM)	relative viability (Bosutinib + Foretinib; first compound 0.1 µM)	relative viability (Bosutinib + Foretinib; first compound 1 µM)	relative viability (Bosutinib + Tozasertib; first compound 0.01 µM)	relative viability (Bosutinib + Tozasertib; first compound 0.03162 µM)	relative viability (Bosutinib + Tozasertib; first compound 0.1 µM)	relative viability (Bosutinib + Tozasertib; first compound 1 µM)	relative viability (Bosutinib + Vorinostat; first compound 0.01 µM)	relative viability (Bosutinib + Vorinostat; first compound 0.03162 µM)	relative viability (Bosutinib + Vorinostat; first compound 0.1 µM)	relative viability (Bosutinib + Vorinostat; first compound 1 µM)	relative viability (Bosutinib + Luminespib; first compound 0.01 µM)	relative viability (Bosutinib + Luminespib; first compound 0.03162 µM)	relative viability (Bosutinib + Luminespib; first compound 0.1 µM)	relative viability (Bosutinib + Luminespib; first compound 1 µM)
HCC-366	1.11	1.01	1.06	0.989	0.884	0.97	0.971	0.879	0.161	0.142	0.104	0.0934	0.433	0.378	0.375	0.286				
HCC-827	1.03	1	1.03	0.928	0.965	1.04	1.02	0.203	0.406	0.442	0.436	0.166	0.811	0.903	1.04	0.75	0.709	0.589	0.525	0.174
HOP-62	0.839	0.755	0.548	0.904	1.11	0.965	1.13	1.12	0.394	0.411	0.35	0.381	0.641	0.687	0.682	0.652	0.993	0.895	0.937	0.904
IA-LM	0.797	0.827	0.881	0.8	1.1	1.18	1.14	0.982					1.06	0.945	0.894	0.947				
LC-2-ad	1.05	0.98	1.02	1.14	0.982	0.979	0.948	0.61	0.469	0.401	0.506	0.482	0.735	0.659	0.673	0.71	1.05	0.924	0.978	1.01
LCLC-97TM1	0.567	0.937	0.894	0.572	0.902	0.902	0.904	0.894	0.461	0.267	0.244	0.362	0.925	0.763	0.811	0.823	0.871	0.744	0.74	0.746
LCLC-103H	1.03	1.13	1.13	0.936	0.844	0.674	0.804	0.878	0.486	0.497	0.48	0.484	0.799	0.858	0.889	0.841	0.958	0.933	1.02	0.975
LK-2					1.1	1.49	1.19	0.914	0.194	0.168	0.191	0.178	0.267	0.278	0.263	0.313	0.199	0.171	0.19	0.209
